{"source": "patent US20180200208A1", "about": "“COMPOSITIONS FOR IMPROVING OR MAINTAINING MYOCARDIAL FUNCTION” (RepoCeuticals ApS, priority 2015, published 2018)", "origin": "cited, not measured here", "key": {"recombinant MT2 receptor": {"target": "T1, recombinant MT2 receptor (Homo sapiens, UniProt P49286)", "T1 sequence (P49286 1-362)": "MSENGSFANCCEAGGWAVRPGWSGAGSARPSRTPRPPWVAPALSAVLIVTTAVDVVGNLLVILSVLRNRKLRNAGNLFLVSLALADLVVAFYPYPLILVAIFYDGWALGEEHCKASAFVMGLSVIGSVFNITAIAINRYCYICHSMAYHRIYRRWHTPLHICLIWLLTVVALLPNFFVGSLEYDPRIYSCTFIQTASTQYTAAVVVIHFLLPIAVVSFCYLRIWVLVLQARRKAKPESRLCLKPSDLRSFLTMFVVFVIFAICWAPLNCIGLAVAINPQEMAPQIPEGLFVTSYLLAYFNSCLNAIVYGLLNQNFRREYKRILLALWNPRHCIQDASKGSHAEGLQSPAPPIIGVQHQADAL", "details": "relative to melatonin"}, "recombinant MT1 receptor": {"target": "recombinant MT1 receptor (Homo sapiens, UniProt P48039)", "sequence (P48039 whole entry)": "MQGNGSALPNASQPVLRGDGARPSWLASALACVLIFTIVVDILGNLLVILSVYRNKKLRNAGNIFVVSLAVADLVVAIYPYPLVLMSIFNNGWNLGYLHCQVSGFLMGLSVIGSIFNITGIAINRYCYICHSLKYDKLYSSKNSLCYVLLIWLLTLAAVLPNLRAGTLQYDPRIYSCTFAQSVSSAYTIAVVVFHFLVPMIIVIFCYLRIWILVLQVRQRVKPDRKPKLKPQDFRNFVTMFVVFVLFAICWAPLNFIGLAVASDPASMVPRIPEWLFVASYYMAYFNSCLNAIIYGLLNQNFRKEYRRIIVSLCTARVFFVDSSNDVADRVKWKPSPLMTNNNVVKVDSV", "details": "relative to melatonin"}, "[1]": {"details": "at 2-8° C."}, "[2]": {"test_system": "patients with primary sleep disorders", "details": "oral doses of up to 5 mg"}}}
{"smiles": "COc1cc2c(CCNC(C)=O)c[nH]c2cc1O", "note": "[6-OHM, 6-hydroxymelatonin]", "values": [{"measurement": "affinity for recombinant MT2 receptor as % of that of melatonin", "setting": "recombinant MT2 receptor", "result": 13, "unit": "%"}, {"measurement": "affinity for recombinant MT1 receptor as % of that of melatonin", "setting": "recombinant MT1 receptor", "result": 20, "unit": "%"}]}
{"smiles": "COc1ccc(NC=O)c(C(=O)CCNC(C)=O)c1", "note": "[AFMK, N^1-acetyl-N^2-formyl-5-methoxykynuramine]", "values": [{"measurement": "solubility in DMSO", "result": "soluble in DMSO"}, {"measurement": "solubility in water", "result": "insoluble in water"}, {"measurement": "long-term stability", "setting": "[1]", "result": "good long-term stability"}]}
{"smiles": "COC1=C(OC)C(=O)C(C/C=C(\\C)CC/C=C(\\C)CC/C=C(\\C)CC/C=C(\\C)CC/C=C(\\C)CC/C=C(\\C)CC/C=C(\\C)CC/C=C(\\C)CC/C=C(\\C)CCC=C(C)C)=C(C)C1=O", "note": "[Coenzyme Q10]", "values": [{"measurement": "solubility in ethanol, dimethyl sulfoxide and various oils", "result": "can be dissolved"}, {"measurement": "solubility in water", "result": "almost water-insoluble"}]}
{"smiles": "COc1ccc2[nH]cc(CCNC(C)=O)c2c1", "note": "[Melatonin, N-acetyl-5-methoxytryptamine]", "values": [{"measurement": "solubility in DMSO", "result": "soluble in DMSO"}, {"measurement": "solubility in water", "result": "insoluble in water"}, {"measurement": "increase of sleep duration (average)", "setting": "[2]", "result": "7 to 8", "unit": "min"}, {"measurement": "reduction of sleep latency (average)", "setting": "[2]", "result": "7 to 8", "unit": "min"}]}
{"smiles": "CC(=O)NCCc1c[nH]c2ccc(O)cc12", "note": "[N-acetylserotonin]", "values": [{"measurement": "affinity for recombinant MT2 receptor as % of that of melatonin", "setting": "recombinant MT2 receptor", "result": 0.22, "unit": "%"}, {"measurement": "affinity for recombinant MT1 receptor as % of that of melatonin", "setting": "recombinant MT1 receptor", "result": 0.14, "unit": "%"}]}
{"smiles": "O=C1C[C@@H](c2ccc(O)cc2)Oc2cc(O)cc(O)c21", "note": "[Naringenin, naringenin]", "values": [{"measurement": "solubility in ethanol, dimethyl sulfoxide and various oils", "result": "readily soluble"}, {"measurement": "solubility in water", "result": "almost insoluble in water"}]}
{"smiles": "Oc1ccc(C=Cc2cc(O)cc(O)c2)cc1", "note": "[Resveratrol, resveratrol]", "values": [{"measurement": "solubility in ethanol, dimethyl sulfoxide and various oils", "result": "readily soluble"}, {"measurement": "solubility in water", "result": "almost insoluble in water"}]}
